Assay results published in ChEMBL document CHEMBL3217665, “Amino-derivatives of the sesquiterpene lactone class of natural products as prodrugs” (Medchemcomm, 2013).
Values after ≈ are worked out from the molar mass of the structure shown.

How the values were obtained:
[1] = Antiproliferative activity against human Hep2 cells; format: functional; settings: HEp-2, read-out: ED50 (the source's name)
A549 = test: Antiproliferative activity against human A549 cells; format: functional, cell-based
P388 [2] = test: Antiproliferative activity against mouse P388 cells; format: functional, cell-based
MCF7 = test: Antiproliferative activity against human MCF7 cells; format: functional, cell-based
NCI-H520 = test: Antiproliferative activity against human NCI-H520 cells; format: functional, cell-based
[3] = Oral bioavailability in mouse at 100 mg/kg; format: ADME, organism-based; settings: in vivo
[4] = Half life in dog at 100 mg/kg, po; format: ADME, organism-based, Canis lupus familiaris; design: dose 100 mg/kg, route oral; settings: in vivo
[5] = Cmax in mouse at 100 mg/kg, po; format: ADME, organism-based; design: dose 100 mg/kg, route oral; settings: in vivo
[6] = Half life in mouse at 100 mg/kg, po; format: ADME, organism-based; design: dose 100 mg/kg, route oral; settings: in vivo
[7] = Oral bioavailability in dog at 100 mg/kg; format: ADME, organism-based, Canis lupus familiaris; settings: in vivo
[8] = Cmax in mouse at 40 mg/kg, po; format: ADME, organism-based; design: dose 40 mg/kg, route oral; settings: in vivo
[9] = Cmax in dog at 100 mg/kg, po; format: ADME, organism-based, Canis lupus familiaris; design: dose 100 mg/kg, route oral; settings: in vivo
P388 [10] = test: Antitumor activity against mouse P388 cells allografted in DBA/2 mouse assessed as survival; format: functional
Mus musculus = species: Mus musculus; test: Gastroprotective activity in mouse assessed as inhibition of water-immersion-induced lesions; format: functional
Rattus norvegicus = species: Rattus norvegicus; test: Gastroprotective activity in rat assessed as inhibition of HCl/ethyl alcohol-induced lesions; format: functional
[11] = Antiinflammatory activity in mouse macrophages assessed as LPS-induced nitric oxide production; format: functional, cell-based; settings: Macrophage

SMILES	IC50 [11]	EC50 [1]	inhibition (INH) (Mus musculus)	inhibition (INH) (Rattus norvegicus)	also measured
C=C1C(=O)O[C@@H]2C[C@@H](C)[C@@H]3CCC(=O)[C@@]3(C)[C@@H](O)[C@H]12		3.83 mg/L (≈ 14.5 µM)			
C=C1CCC[C@]2(C)C[C@H]3OC(=O)[C@@H](CN(CC)CC)[C@H]3C[C@@H]12					IC50 (A549): 0.8 µM; IC50 (P388 [2]): 0.3 µM; IC50 (MCF7): 0.8 µM; IC50 (NCI-H520): 0.9 µM
C/C1=C\CC[C@@]2(C)O[C@@H]2[C@H]2OC(=O)[C@@H](CN(C)C)[C@@H]2CC1					bioavailability [3]: 70%; half-life [4]: 1.9 h; Cmax [5]: 25 µM; half-life [6]: 0.63 h; bioavailability [7]: 70%; Cmax [8]: 0.2 µM; Cmax [9]: 61 µM
C[C@@H]1C[C@H]2OC(=O)C(CN(C)C)[C@H]2[C@H](O)[C@]2(C)C(=O)C=C[C@@H]12 (stereo partly specified)		0.604 mg/L (≈ 1.96 µM)			Survival (P388 [10]): 13 days
C[C@@H]1C[C@H]2OC(=O)C(CN(C)C)[C@H]2[C@H](O)[C@]2(C)C(=O)CC[C@@H]12 (stereo partly specified)		6.04 mg/L (≈ 19.5 µM)			
C=C1CC[C@H]2C(=C)CC[C@H]3C(=C)C(=O)O[C@@H]3[C@@H]12 [DEHYDROCOSTUSLACTONE]	1.2 mg/L (≈ 5.21 µM)		19%	96.2%	
C=C1C(=O)O[C@@H]2C[C@@H](C)[C@@H]3C=CC(=O)[C@@]3(C)[C@@H](O)[C@H]12 [HELENALIN]		0.083 mg/L (≈ 0.316 µM)			Survival (P388 [10]): 13.4 days
C=C1C(=O)O[C@@H]2C[C@@]3(C)CCCC(=C)[C@@H]3C[C@H]12 [ISOALANTOLACTONE]					IC50 (A549): 0.6 µM; IC50 (P388 [2]): 0.4 µM; IC50 (MCF7): 0.6 µM; IC50 (NCI-H520): 0.9 µM

Further lines, with some results ahead:

IC50 [11]	SMILES	EC50 [1]	inhibition (INH) (Mus musculus)	inhibition (INH) (Rattus norvegicus)	also measured
2.8 mg/L (≈ 8.06 µM)	C/C1=C\[C@H]2OC(=O)[C@@H](CN3CCC[C@H]3C(=O)O)[C@@H]2CC/C(C)=C/CC1		57%	59.8%	
2.8 mg/L (≈ 8.11 µM)	C=C1CC[C@H]2C(=C)CC[C@@H]3[C@H](OC(=O)[C@H]3CN3CCC[C@H]3C(=O)O)[C@@H]12		19%	87%	
16 mg/L (≈ 44.1 µM)	C=C1CC[C@H]2C(=C)CC[C@@H]3[C@H](OC(=O)[C@H]3CN[C@@H](CC(N)=O)C(=O)O)[C@@H]12		4.7%	68.1%	
1.2 mg/L (≈ 5.17 µM)	C=C1C(=O)O[C@@H]2/C=C(\C)CC/C=C(\C)CC[C@@H]12 [COSTUNOLIDE]		14.3%	93.2%	
